This is an account of results in patent US8697694B2, “Substituted pyridine and pyrimidine derivatives and their use in treating viral infections” (priority 2008, dated 2014).

Usually EC90 stands for the concentration needed for an effect of 90%.

The first assay deals with HCV replicon cells. Nature of the assay: Cell-based HCV replicon assay (replicon RNA level by real time PCR, Taqman). As to conditions: Hepatitis C virus, 72 h, HCV replicon cells, harvested day 3, replicon RNA by real time PCR; given as number; read-out: EC90 (μM) range. The procedure: Assays Cell-Based HCV Replicon Assay
To measure cell-based anti-HCV activity of the compounds of the present invention, replicon cells were seeded at 5000 cells/well in 96-well collagen I-coated Nunc plates in the presence of the compound of the invention. Various concentrations of a compound of the invention, typically in 10 serial 2-fold dilutions, were added to the assay mixture, the starting concentration of the compound ranging from 25 μM to 1 μM. The final concentration of DMSO was 0.5%, fetal bovine serum was 10%, in the assay media. Cells were harvested on day 3 by the addition of 1× cell lysis buffer (Ambion cat #8721). The replicon RNA level was measured using real time PCR (Taqman assay). The amplicon was located in 5B. The PCR primers were: 5B.2F, ATGGACAGGCGCCCTGA (SEQ. ID NO. 1); 5B.2R, […] (SEQ. ID NO. 2); the probe sequence was FAM-labeled CACGCCATGCGCTGCGG (SEQ. ID NO. 3). GAPDH RNA was used as endogenous control and was amplified in the same reaction as NS5B (multiplex PCR) using primers and VIC-labeled probe recommended by the manufacturer (PE Applied Biosystem). The real-time RT-PCR reactions were run on ABI PRISM 7900HT Sequence Detection System using the following program: 48′C for 30 min, 95° C. for 10 min, 40 cycles of 95° C. for 15 sec, 60° C. for 1 min. The ΔCT values (CT5B-CTGAPDH) were plotted against the concentration of test compound and fitted to the sigmoid dose-response model using GraphPad PRISM software. EC50 was defined as the concentration of inhibitor necessary to achieve ΔCT=1 over the projected baseline; EC90 the concentration necessary to achieve ΔCT=3.2 over the baseline. Alternatively, to quantitate the absolute amount of replicon RNA, a standard curve was established by including serially diluted T7 transcripts of replicon RNA in the Taqman assay. All Taqman reagents were from PE Applied Biosystems. Such an assay procedure was described in detail in e.g. Malcolm et al., Antimicrobial Agents and Chemotherapy 50: 1013-1020 (2006).
HCV Replicon assay data for compounds of the invention that were tested was obtained using the above method. Calculated EC90 values are reported for each compound in Table I as a falling within the following ranges: […]
In general terms: A replicon is a self-replicating genome or part of one, used to study replication in cells.
Take `CCC(CC)Oc1cc2cc(-c3c(C)nc(NCCOC)nc3N[C@@H]3C[C@H](CO)[C@@H](O)[C@H]3O)oc2c(C)n1` [Example 48]: the EC90 was more than 25 µM.

Still in this assay, the particulars now being: Hepatitis C virus, 72 h, HCV replicon cells, harvested day 3, replicon RNA by real time PCR; reported as range class; read-out: EC90 (μM) range.
For `Nc1nc(Cl)c(-c2cc3cncnc3o2)c(N[C@@H]2C[C@H](CO)[C@@H](O)[C@H]2O)n1` [Example 402], the EC90 is more than 5 µM.

Consider `Nc1nc(Cl)c(-c2nc3ccc(OCc4ccccc4)cc3s2)c(N[C@@H]2C[C@H](CO)[C@@H](O)[C@H]2O)n1` [Example 199], for which the 90% effect concentration (EC90) was more than 5 µM.

Regarding `Nc1ncc(-c2cc3ccncc3o2)c(N[C@@H]2C[C@H](CO)[C@@H](O)[C@H]2O)n1` [Example 113], the EC90 was in the range of 0.5 to 5 µM.

As to `COCCNc1nc(Cl)c(-c2cc3cc(OC)nc(C)c3o2)c(N[C@@H]2C[C@H](CO)[C@@H](O)[C@H]2O)n1` [Example 18], the EC90 is less than 0.5 µM.

Regarding `Nc1nc(Cl)c(-c2nccs2)c(N[C@@H]2C[C@H](CO)[C@@H](O)[C@H]2O)n1` [Example 104], the 90% effect concentration (EC90) is more than 5 µM.

Consider `CN(C)c1ccc2sc(-c3c(Cl)nc(N)nc3N[C@@H]3C[C@H](CO)[C@@H](O)[C@H]3O)nc2c1` [Example 200], for which the EC90 is less than 0.5 µM.

With `Nc1nc(Cl)c(-c2cc3ccc(C(=O)N4CCOCC4)cc3o2)c(N[C@@H]2C[C@H](CO)[C@@H](O)[C@H]2O)n1` [Example 179], the EC90 is more than 5 µM.

Turning to `OC[C@H]1C[C@@H](Nc2nc(N3CCOCC3)nc(Cl)c2-c2nc3ccccc3s2)[C@H](O)[C@@H]1O` [Example 116], the EC90 is 0.5 to 5 µM.

The same assay, now with this note: Hepatitis C virus, 72 h, HCV replicon cells, harvested on day 3, replicon RNA by real time PCR; calculated EC90 reported as range class; read-out: EC90 (μM) range.
In the case of `Cc1nc(NCC2CC2)nc(N[C@@H]2C[C@H](CO)[C@@H](O)[C@H]2O)c1-c1cc2cc(C(F)(F)F)ncc2o1` [Example 143], the EC90 is 0.5 to 5 µM.

Take `CCCCCCNc1nc(Cl)c(-c2nc3ccccc3s2)c(N[C@@H]2C[C@H](CO)[C@@H](O)[C@H]2O)n1` [Example 454]: the EC90 was less than 0.5 µM.

`Cc1nc(NCC(F)(F)F)nc(N[C@@H]2C[C@H](CO)[C@H]3OC(C)(C)O[C@H]32)c1-c1cc2cc(C(F)(F)F)ncc2o1` [Example 140]: the EC90 was 0.5 to 5 µM.

As for `OC[C@H]1C[C@@H](Nc2nc(NC(CF)CF)nc(Cl)c2-c2nc3ccccc3s2)[C@H](O)[C@@H]1O` [Example 129], the EC90 is less than 0.5 µM.

Regarding `CCCCCNc1nc(Cl)c(-c2nc3ccccc3s2)c(N[C@@H]2C[C@H](CO)[C@@H](O)[C@H]2O)n1` [Example 433], the EC90 was less than 0.5 µM.

Take `CCCCCCNc1nc(C)c(-c2nc3ccccc3s2)c(N[C@@H]2C[C@H](CO)[C@@H](O)[C@H]2O)n1` [Example 455]: the EC90 was less than 0.5 µM.

`COCc1cc2cc(-c3c(C)nc(NCC(C)(C)C)nc3N[C@@H]3C[C@H](CO)[C@H]4OC(C)(C)O[C@H]43)oc2cn1` [Example 714]: the EC90 was 0.5 to 5 µM.

Regarding `CCCCCNc1nc(C)c(-c2cc3cc(CCC)nc(C)c3o2)c(N[C@@H]2C[C@H](CO)[C@@H](O)[C@H]2O)n1` [Example 448], the EC90 was less than 0.5 µM.

As for `OC[C@H]1C[C@@H](Nc2nc(NCc3cccc(F)c3)nc(Cl)c2-c2nc3ccccc3s2)[C@H](O)[C@@H]1O` [Example 234], the EC90 is less than 0.5 µM.

On to `Cc1nc(NCc2ccccc2F)nc(N[C@@H]2C[C@H](CO)[C@@H](O)[C@H]2O)c1-c1nc2ccccc2s1` [Example 233], for which the EC90 is less than 0.5 µM.

Staying with this assay, now noted: Hepatitis C virus, 72 h, HCV replicon cells, replicon RNA level by real time PCR (Taqman), day 3; calculated EC90; read-out: EC90 (μM) range.
As to `Cc1ccc(CNc2nc(C)c(-c3nc4ncccc4o3)c(N[C@@H]3C[C@H](CO)[C@@H](O)[C@H]3O)n2)cc1` [Example 2007], the EC90 was less than 0.5 µM.

Staying with this assay, now noted: Hepatitis C virus, 72 h, HCV replicon cells, replicon RNA level by real time PCR (Taqman), harvested on day 3; calculated EC90 reported as range class; read-out: EC90 (μM) range.
`Cc1nc(NCCOC(F)(F)F)nc(N[C@@H]2C[C@H](CO)[C@@H](O)[C@H]2O)c1-c1nc2ccccc2s1` [Example 1066]: the EC90 is less than 0.5 µM.

For the molecule `Cc1cc(CNc2nc(C)c(-c3nc4cnccc4s3)c(N[C@@H]3C[C@H](CO)[C@@H](O)[C@H]3O)n2)on1` [Example 538], the EC90 was less than 0.5 µM.

`Cc1cc2cc(-c3c(C)nc(NCC(F)(F)F)nc3N[C@@H]3C[C@H](CO)[C@@H](O)[C@H]3O)oc2c(OC(C)C)n1` [Example 1247]: the EC90 was less than 0.5 µM.

As to `CCOCCCNc1nc(C)c(-c2nc3ccccc3s2)c(N[C@@H]2C[C@H](CO)[C@@H](O)[C@H]2O)n1` [Example 1041], the EC90 was 0.5 to 5 µM.

On to `Cc1ccc([C@@H](C)Nc2nc(C)c(-c3nc4c(C)nccc4s3)c(N[C@@H]3C[C@H](CO)[C@@H](O)[C@H]3O)n2)cc1` [Example 1320], for which the EC90 was less than 0.5 µM.

For the molecule `COc1cc(OC)cc(Oc2nc(C)c(-c3nc4ccccc4s3)c(N[C@@H]3C[C@H](CO)[C@@H](O)[C@H]3O)n2)c1` [Example 1211], the EC90 was more than 5 µM.

Take `Cc1nc(NCC(=O)O)nc(N[C@@H]2C[C@H](CO)[C@@H](O)[C@H]2O)c1-c1nc2ccccc2s1` [Example 1011]: the EC90 is 0.5 to 5 µM.

As to `Cc1nc(NCc2cccs2)nc(N2CCC[C@H]2CO)c1-c1nc2ccccc2s1` [Example 1224], the EC90 was more than 5 µM.

`Cc1nc(NCc2cccs2)nc(N[C@@H]2C[C@H](CN)[C@@H](O)[C@H]2O)c1-c1nc2ccccc2s1` [Example 1328]: the EC90 is less than 0.5 µM.

Staying with this assay, now noted: Hepatitis C virus, 72 h, HCV replicon cells, replicon RNA level by real time PCR, harvested day 3; read-out: EC90 (μM) range.
Take `Cc1nc(NCC(F)(F)F)nc(N[C@@H]2C[C@H](CNS(=O)(=O)CC(C)C)[C@@H](O)[C@H]2O)c1-c1nc2ccccc2s1` [Example 1512]: the EC90 lay in the range of 0.5 to 5 µM.

In the case of `Cc1nc(NCC(F)(F)F)nc(N[C@@H]2C[C@H](C(O)c3ncc[nH]3)[C@@H](O)[C@H]2O)c1-c1nc2ccccc2s1` (stereo partly drawn) [Example 1654], the EC90 is 0.5 to 5 µM.

As for `Cc1nc(NCC(F)(F)F)nc(N[C@@H]2CC[C@@H](O)[C@@]2(C)O)c1-c1nc2cnccc2s1` [Example 1809], the EC90 fell in the range of 0.5 to 5 µM.

`Cc1nc(NCC(F)(F)F)nc(N[C@@H]2C[C@H](CO)[C@@H](O)[C@H]2O)c1-c1cc2ccccc2s1` [Example 1604]: the EC90 was more than 5 µM.

In the case of `CCCc1nccc2sc(-c3c(C)nc(N[C@H](C)c4ccc(C)cc4)nc3N[C@@H]3C[C@H](CO)[C@@H](O)[C@H]3O)nc12` [Example 1371], the EC90 is less than 0.5 µM.

As to `Cc1nc(NCC(F)(F)F)nc(N[C@@H]2C[C@H](CNC(=O)CO)[C@@H](O)[C@H]2O)c1-c1nc2ccccc2s1` [Example 1508], the EC90 is 0.5 to 5 µM.

Take `CCc1nccc2sc(-c3c(C)nc(N[C@H](C)C4CC4)nc3N[C@@H]3C[C@H](CO)[C@@H](O)[C@H]3O)nc12` [Example 1505]: the EC90 was less than 0.5 µM.

Regarding `Cc1nc(N[C@@H](c2cccs2)C(F)(F)F)nc(N[C@@H]2C[C@H](CO)[C@@H](O)[C@H]2O)c1-c1nc2ccccc2s1` [Example 1801], the EC90 is less than 0.5 µM.

Consider `Cc1nc(NCC(F)(F)F)nc(N[C@@H]2C[C@H](CNS(C)(=O)=O)[C@@H](O)[C@H]2O)c1-c1nc2ccccc2s1` [Example 1507], for which the EC90 was less than 0.5 µM.

Regarding `CCCc1nccc2sc(-c3c(C)nc(N[C@H](C)C4CC4)nc3N[C@@H]3C[C@H](CNS(C)(=O)=O)[C@@H](O)[C@H]3O)nc12` [Example 1387], the EC90 is less than 0.5 µM.

Turning to `Cc1nc(N[C@H](c2cccs2)C(F)(F)F)nc(N[C@@H]2C[C@H](CO)[C@@H](O)[C@H]2O)c1-c1nc2ccccc2s1` [Example 1803], the EC90 was more than 5 µM.

As to `Cc1nc(NCCc2cccs2)nc(N[C@@H]2C[C@H](CO)[C@@H](O)[C@H]2O)c1-c1nc2ccccc2s1` [Example 1805], the EC90 was less than 0.5 µM.

With `Cc1ccc([C@H](Nc2nc(C)c(-c3nc4c(C)nccc4s3)c(N[C@@H]3C[C@H](CO)[C@@H](O)[C@H]3O)n2)C2CC2)cc1` [Example 1362], the EC90 is less than 0.5 µM.
